SMILES strings stand for the structures.

What all share (format): physicochemical
Data set [1] can be described thus: Solubility test in organic solvent (amount of dissolution). The note with it: amount of dissolution in propylene glycol monomethyl ether, 23° C., ultrasonic waves 30 minutes, visual observation. The method, then: With respect to the solubility of each compound in an organic solvent, the solubility of the compound in propylene glycol monomethyl ether was measured. The solubility was evaluated according to the following criteria, using the amount of dissolution in propylene glycol monomethyl ether. For the measurement of the amount of dissolution, the evaluation was carried out by precisely weighing the compound in a test tube at 23° C., […], applying ultrasonic waves for 30 minutes with an ultrasonic cleaning machine, visually observing the subsequent state of the liquid, and determining the concentration of the completely dissolved amount as the basis.

Data set [2] is described as follows: Refractive index of optical component forming film (spectroscopic ellipsometer). The following applies: wavelength 633 nm; 1000 nm film from 5% by mass composition, baked 110° C. 60 seconds. Here is the method: (§1) The compositions for forming optical components were each prepared so that the amount of the compound shown in the following table was 5% by mass in propylene glycol methyl ether. Next, a silicon substrate was spin coated with each of these compositions for forming an optical component, and then baked at 110° C. for 60 seconds to prepare an optical component forming film each having a film thickness of 1000 nm.
(§2) Then, tests for the refractive index and the transparency at a wavelength of 633 nm were carried out by using a vacuum ultraviolet with variable angle spectroscopic ellipsometer (model name: VUV-VASE) manufactured by J.A. Woollam Japan, and the refractive index and the transparency were evaluated.

Data set [3] in a line: Transparency (absorption coefficient) of optical component forming film. The following applies: absorption coefficient at wavelength 633 nm; 1000 nm film, baked 110° C. 60 seconds. The method, then: as §1, §2
Data set [4] in a line: Film heat resistance (visual defects after baking). Details: key: A: No visual defects in the film; C: Visual defects in the film (including the loss of films). The following applies: film baked at 110° C. for 5 minutes. The method, then: as §1
The optical component forming film was baked at 110° C. for 5 minutes to evaluate the film heat resistance.

Regarding `Oc1ccc(Oc2ccc3ccc4c(c3c2)C(c2ccc3ccccc3c2)c2c(ccc3ccc(Oc5ccc(O)cc5)cc23)O4)cc1` [BiN-1-PX], the Solubility test result in data set [1] is “A (5.0% by mass≤amount of dissolution)”. Further, the “Evaluation of refractive index” value in data set [2] is “A (The refractive index is 1.75 or more.)”. In data set [3], the Evaluation of transparency result was “A (The absorption coefficient is less than 0.03.)”. Further, the “Evaluation of film heat resistance” value in data set [4] is listed as “A”.
On the same counts, the results for `C=CCOc1ccc2c3c(ccc2c1)Oc1ccc2cc(OCC=C)ccc2c1C3c1ccc2ccccc2c1` [BiN-3-AL] are “A (5.0% by mass≤amount of dissolution)”, “A (The refractive index is 1.75 or more.)”, “A (The absorption coefficient is less than 0.03.)” and “A”.
The matching figures for `c1ccc2cc(C3c4c(ccc5ccc(OCC6CO6)cc45)Oc4ccc5ccc(OCC6CO6)cc5c43)ccc2c1` (centres unmarked) [BiN-1-G]: “A (5.0% by mass≤amount of dissolution)”, “A (The refractive index is 1.75 or more.)”, “A (The absorption coefficient is less than 0.03.)” and “A”.
The matching figures for `Oc1ccc2ccc(O)c(C(c3ccc4ccccc4c3)c3c(O)ccc4ccc(O)cc34)c2c1` [BiN-1U]: “A (5.0% by mass≤amount of dissolution)”, “A (The refractive index is 1.75 or more.)”, “A (The absorption coefficient is less than 0.03.)” and “A”.
In the case of `C=CC(=O)Oc1ccc2ccc3c(c2c1)C(c1ccc2ccccc2c1)c1c(ccc2ccc(OC(=O)C=C)cc12)O3` [BiN-1-Ac], in data set [1], the Solubility test entry is reported as “A (5.0% by mass≤amount of dissolution)”. Moreover, the “Evaluation of refractive index” value in data set [2] is “B (The refractive index is 1.65 or more and less than 1.75.)”. Further, the Evaluation of transparency result in data set [3] was “A (The absorption coefficient is less than 0.03.)”. In data set [4], the “Evaluation of film heat resistance” value is “A”.
As to `C=C(C)C(=O)OCCC(N)C(=O)Oc1ccc2ccc3c(c2c1)C(c1ccc2ccccc2c1)c1c(ccc2ccc(OC(=O)C(N)CCOC(=O)C(=C)C)cc12)O3` (centres unmarked) [BiN-1-Ua], the Solubility test result in data set [1] is listed as “A (5.0% by mass≤amount of dissolution)”. Further, the “Evaluation of refractive index” value in data set [2] was “B (The refractive index is 1.65 or more and less than 1.75.)”. In addition, the Evaluation of transparency result in data set [3] is “A (The absorption coefficient is less than 0.03.)”. Also, the “Evaluation of film heat resistance” value in data set [4] is recorded as “A”.
On to `C=Cc1ccc(COc2ccc3ccc4c(c3c2)C(c2ccc3ccccc3c2)c2c(ccc3ccc(OCc5ccc(C=C)cc5)cc23)O4)cc1` [BiN-1-SX], for which the Solubility test result in data set [1] was “A (5.0% by mass≤amount of dissolution)”. Further, in data set [2], the “Evaluation of refractive index” value is recorded as “A (The refractive index is 1.75 or more.)”. Besides, in data set [3], the Evaluation of transparency entry was “A (The absorption coefficient is less than 0.03.)”. Besides, in data set [4], the “Evaluation of film heat resistance” value is on record as “A”.
Consider `c1ccc2cc(C3c4c(ccc5ccc(OCCOCC6CO6)cc45)Oc4ccc5ccc(OCCOCC6CO6)cc5c43)ccc2c1` (centres unmarked) [BiN-1-GE], for which the Solubility test result in data set [1] was “A (5.0% by mass≤amount of dissolution)”. For the same molecule, the “Evaluation of refractive index” value in data set [2] was “A (The refractive index is 1.75 or more.)”. Besides, the Evaluation of transparency result in data set [3] is “A (The absorption coefficient is less than 0.03.)”. For the same molecule, the “Evaluation of film heat resistance” value in data set [4] was “A”.
With `Oc1ccc2ccc3c(c2c1)C(c1cccc2ccccc12)c1c(ccc2ccc(O)cc12)O3` [BiN-2], in data set [1], the Solubility test entry is “A (5.0% by mass≤amount of dissolution)”. The “Evaluation of refractive index” value in data set [2] is “A (The refractive index is 1.75 or more.)”. The Evaluation of transparency entry in data set [3] is “A (The absorption coefficient is less than 0.03.)”. Besides, the “Evaluation of film heat resistance” value in data set [4] is given as “A”.
Consider `CC(C)(C)OC(=O)COc1ccc2c3c(ccc2c1)Oc1ccc2cc(OCC(=O)OC(C)(C)C)ccc2c1C3c1ccc2ccccc2c1` [BiN-3-MeBOC], for which the Solubility test entry in data set [1] was “A (5.0% by mass≤amount of dissolution)”. In addition, the “Evaluation of refractive index” value in data set [2] is “B (The refractive index is 1.65 or more and less than 1.75.)”. Moreover, in data set [3], the Evaluation of transparency result is reported as “A (The absorption coefficient is less than 0.03.)”. Also, in data set [4], the “Evaluation of film heat resistance” value is on record as “A”.
Take `C=C(C)C(=O)OCC(O)COc1ccc2ccc3c(c2c1)C(c1ccc2ccccc2c1)c1c(ccc2ccc(OCC(O)COC(=O)C(=C)C)cc12)O3` (centres unmarked) [BiN-1-Ea]: in data set [1], the Solubility test result is “A (5.0% by mass≤amount of dissolution)”. For the same molecule, in data set [2], the “Evaluation of refractive index” value was “B (The refractive index is 1.65 or more and less than 1.75.)”. Also, the Evaluation of transparency entry in data set [3] is reported as “A (The absorption coefficient is less than 0.03.)”. Besides, the “Evaluation of film heat resistance” value in data set [4] is “A”.
Turning to `Oc1ccc2ccc3c(c2c1)C(c1ccc2ccccc2c1)c1c(ccc2ccc(O)cc12)O3` [BiN-1], in data set [1], the Solubility test entry was “A (5.0% by mass≤amount of dissolution)”. Also, in data set [2], the “Evaluation of refractive index” value is “A (The refractive index is 1.75 or more.)”. The Evaluation of transparency entry in data set [3] was “A (The absorption coefficient is less than 0.03.)”. Moreover, the “Evaluation of film heat resistance” value in data set [4] is “A”.
On to `OCCOc1ccc2ccc3c(c2c1)C(c1ccc2ccccc2c1)c1c(ccc2ccc(OCCO)cc12)O3` [BiN-1-E], for which the Solubility test result in data set [1] is listed as “A (5.0% by mass≤amount of dissolution)”. In addition, in data set [2], the “Evaluation of refractive index” value was “B (The refractive index is 1.65 or more and less than 1.75.)”. Besides, the Evaluation of transparency entry in data set [3] is listed as “A (The absorption coefficient is less than 0.03.)”. Moreover, the “Evaluation of film heat resistance” value in data set [4] is on record as “A”.
Consider `CC1(c2ccc3ccccc3c2)c2c(ccc3ccc(O)cc23)Oc2ccc3ccc(O)cc3c21` [BiN-4], for which, in data set [1], the Solubility test entry is “A (5.0% by mass≤amount of dissolution)”. In addition, in data set [2], the “Evaluation of refractive index” value is on record as “A (The refractive index is 1.75 or more.)”. For the same molecule, the Evaluation of transparency result in data set [3] was “A (The absorption coefficient is less than 0.03.)”. In addition, the “Evaluation of film heat resistance” value in data set [4] is “A”.
On the same counts, the results for `Oc1cc2ccccc2c(C(c2ccc3ccccc3c2)c2c(O)c(O)cc3ccccc23)c1O` [BiN-5U] are “A (5.0% by mass≤amount of dissolution)”, “A (The refractive index is 1.75 or more.)”, “A (The absorption coefficient is less than 0.03.)” and “A”.
Consider `Oc1ccc(CCOc2ccc3ccc4c(c3c2)C(c2ccc3ccccc3c2)c2c(ccc3ccc(OCCc5ccc(O)cc5)cc23)O4)cc1` [BiN-1-PE], for which the Solubility test result in data set [1] is “A (5.0% by mass≤amount of dissolution)”. Besides, in data set [2], the “Evaluation of refractive index” value is reported as “A (The refractive index is 1.75 or more.)”. The Evaluation of transparency result in data set [3] is listed as “A (The absorption coefficient is less than 0.03.)”. The “Evaluation of film heat resistance” value in data set [4] is recorded as “A”.
Take `C=Cc1ccc(COCCOc2ccc3ccc4c(c3c2)C(c2ccc3ccccc3c2)c2c(ccc3ccc(OCCOCc5ccc(C=C)cc5)cc23)O4)cc1` [BiN-1-SE]: in data set [1], the Solubility test result is listed as “A (5.0% by mass≤amount of dissolution)”. The “Evaluation of refractive index” value in data set [2] is given as “A (The refractive index is 1.75 or more.)”. Further, the Evaluation of transparency entry in data set [3] was “A (The absorption coefficient is less than 0.03.)”. The “Evaluation of film heat resistance” value in data set [4] is “A”.
On the same counts, the results for `Oc1ccc2c(C(c3ccc4ccccc4c3)c3c(O)ccc4cc(O)ccc34)c(O)ccc2c1` [BiN-3U] are “A (5.0% by mass≤amount of dissolution)”, “A (The refractive index is 1.75 or more.)”, “A (The absorption coefficient is less than 0.03.)” and “A”.
The matching figures for `Oc1ccc2c3c(ccc2c1)Oc1ccc2cc(O)ccc2c1C3c1ccc2ccccc2c1` [BiN-3]: “A (5.0% by mass≤amount of dissolution)”, “A (The refractive index is 1.75 or more.)”, “A (The absorption coefficient is less than 0.03.)” and “A”.
For the molecule `C#CCOc1ccc2ccc3c(c2c1)C(c1ccc2ccccc2c1)c1c(ccc2ccc(OCC#C)cc12)O3` [BiN-1-Pr], the Solubility test entry in data set [1] is reported as “A (5.0% by mass≤amount of dissolution)”. The “Evaluation of refractive index” value in data set [2] was “A (The refractive index is 1.75 or more.)”. The Evaluation of transparency result in data set [3] is “A (The absorption coefficient is less than 0.03.)”. Also, the “Evaluation of film heat resistance” value in data set [4] was “A”.

These data come from patent US20210309595A1, “COMPOSITION FOR FORMING OPTICAL COMPONENT, OPTICAL COMPONENT, COMPOUND, AND RESIN” (Mitsubishi Gas Chemical Company, Inc., priority 2018, published 2021).
